Hygroscopicity data for 4 substances are collected here from patent publication US6365574B2, “Ethanolate of azithromycin, process for manufacture, and pharmaceutical compositions thereof” (Teva Pharmaceutical Industries Ltd., priority 1998, dated 2002).

Series [1] can be described thus: Hygroscopicity profile: controlled humidity chambers for two weeks, then Karl Fisher analysis of water content. The format is physicochemical. The note with it: compared with azithromycin monohydrate over a range of relative humidity (FIG. 1); monohydrate data from EP 298,650. An excerpt: Hygroscopicity profiles were obtained by maintaining samples in controlled humidity chambers for a period of two weeks, followed by Karl Fisher analysis of water content.

The conditions of series [2]: cited from earlier work.

“Also recorded” adds a separate entry of the source. Like-named read-outs stand apart in the source and are kept apart here.

As to “9-deoxo-9a-aza-9a-methyl-9a-homoerythromycin A [ethanolate of azithromycin]”, in series [1], the hygroscopicity result is given as “less hygroscopic than azithromycin monohydrate; also recorded: less hygroscopic than the prior art monohydrate”.
As to “9-deoxo-9a-aza-9a-methyl-9a-homoerythromycin A”, in series [2] (according to CN 1,093,370), the hygroscopicity result is given as “less hygroscopic than the dehydrate described in EP 298,650”.
As to “9-deoxo-9a-aza-9a-methyl-9a-homoerythromycin A [dehydrate form of azithromycin]”, the hygroscopicity entry in series [2] (according to EP 298,650) is given as “less hygroscopic than the previously known monohydrate”.
“9-deoxo-9a-aza-9a-methyl-9a-homoerythromycin A [monohydrate]”: the hygroscopicity result in series [2] (according to EP 298,650) was “hygroscopic”.
